As usually defined, the AC50 is the midpoint of the concentration-response curve, whichever way the signal moves. A low value points to greater potency.

Chain of PKM2 (P14618 whole entry): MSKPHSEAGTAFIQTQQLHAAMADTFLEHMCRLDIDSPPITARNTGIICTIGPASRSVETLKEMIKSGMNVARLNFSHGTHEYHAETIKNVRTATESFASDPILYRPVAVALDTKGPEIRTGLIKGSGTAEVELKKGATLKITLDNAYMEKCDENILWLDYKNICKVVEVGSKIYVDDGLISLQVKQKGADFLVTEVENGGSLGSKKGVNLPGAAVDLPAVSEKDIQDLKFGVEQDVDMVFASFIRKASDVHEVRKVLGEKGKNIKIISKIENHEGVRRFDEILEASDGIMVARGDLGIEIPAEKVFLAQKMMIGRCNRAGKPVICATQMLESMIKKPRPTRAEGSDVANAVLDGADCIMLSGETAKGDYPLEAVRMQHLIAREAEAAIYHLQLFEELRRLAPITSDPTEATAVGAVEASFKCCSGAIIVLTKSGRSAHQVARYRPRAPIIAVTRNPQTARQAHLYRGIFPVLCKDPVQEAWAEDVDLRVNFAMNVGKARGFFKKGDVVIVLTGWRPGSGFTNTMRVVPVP

The first assay addresses PKM2 (Homo sapiens, UniProt P14618). Put plainly: PKM2 Assay (activation, LDH-coupled, absorbance at 340 nm). The class given is biochemical. The note with it: Table 4. An outline of the steps: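 Read-out was the 340 nm NADH absorbance change at 25 °C in an LDH-coupled system (PEP 0.15 mM, NADH 180 μM, ADP 0.7 mM to initiate) in 50 mM Tris pH 7.5, 100 mM KCl, 5 mM MgCl2. PKM2 at 50 ng/well was first preincubated with compound for 30 min at 4 °C. Activation given as AC50.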
The compound `O=C(c1ccc(NS(=O)(=O)c2cccc3cccnc23)cc1)N1CC2CCC(C1)N2Cc1ccc(F)cc1` [Compound 219, N-(4-(8-(4-fluorobenzyl)-3,8-diazabicyclo[3.2.1]octane-3-carbonyl)phenyl)quinoline-8-sulfonamide] yielded an AC50 of 100 to 500 nM.
Consider `CC(c1ccc(F)cc1Cl)N1CCN(C(=O)c2ccc(NS(=O)(=O)c3cccc4cccnc34)cc2)[C@H](C)C1` (stereo partly drawn) [Compound 191, N-(4-((2R)-4-(1-(2-chloro-4-fluorophenyl)ethyl)-2-methylpiperazine-1-carbonyl)phenyl)quinoline-8-sulfonamide], for which the AC50 fell in the range of 100 to 500 nM.
Compound `C[C@H]1CN(CC2CC2)CCN1C(=O)c1ccc(NS(=O)(=O)c2cccc3cccnc23)cc1` [Compound 144, (S)—N-(4-(4-(cyclopropylmethyl)-2-methylpiperazine-1-carbonyl)phenyl)quinoline-8-sulfonamide] yielded an AC50 below 100 nM.
In the case of `C[C@H]1CN(Cc2cc(F)c(F)c(F)c2)CCN1C(=O)c1ccc(NS(=O)(=O)c2cccc3cccnc23)cc1` [Compound 155, (S)—N-(4-(2-methyl-4-(3,4,5-trifluorobenzyl)piperazine-1-carbonyl)phenyl)quinoline-8-sulfonamide], the AC50 was below 100 nM.
Same read-out and setting: under `C[C@@H]1CN(C(=O)O[C@@H]2CCCOC2)CCN1C(=O)c1ccc(NS(=O)(=O)c2cccc3cccnc23)cc1` [Compound 127, (R)—((R)-tetrahydro-21′-pyran-3-yl)-3-methyl-4-(4-(quinoline-8-sulfonamido)benzoyl)piperazine-1-carboxylate] stands 100 to 500 nM; under `CC1CN(Cc2c(F)ccc(F)c2F)CC(C)N1C(=O)c1ccc(NS(=O)(=O)c2cccc3cccnc23)cc1` (stereo not drawn) [Compound 199, N-(4-(2,6-dimethyl-4-(2,3,6-trifluorobenzyl)piperazine-1-carbonyl)phenyl)quinoline-8-sulfonamide], below 100 nM.
Same read-out and setting: under `C[C@H]1CN(CC2CCCC2)CCN1C(=O)c1ccc(NS(=O)(=O)c2cccc3cccnc23)cc1` [Compound 140, (S)—N-(4-(4-(cyclopentylmethyl)-2-methylpiperazine-1-carbonyl)phenyl)quinoline-8-sulfonamide] stands below 100 nM.
Same read-out and setting: under `C[C@@H]1CN(Cc2ccc(Cl)c(F)c2)CCN1C(=O)c1ccc(NS(=O)(=O)c2cccc3cccnc23)cc1` [Compound 125, (R)—N-(4-(4-(4-chloro-3-fluorobenzyl)-2-methylpiperazine-1-carbonyl)phenyl)quinoline-8-sulfonamide] stands below 100 nM; under `CC(C)OC(=O)N1CCN(C(=O)c2ccc(NS(=O)(=O)c3cccc4cccnc34)cc2)[C@@H](C)C1` [Compound 108, (S)-isopropyl 3-methyl-4-(4-(quinoline-8-sulfonamido)benzoyl)piperazine-1-carboxylate], below 100 nM.
`C[C@@H]1CN(Cc2ccccc2F)CCN1C(=O)c1ccc(NS(=O)(=O)c2cccc3cccnc23)cc1` [Compound 150, (R)—N-(4-(4-(2-fluorobenzyl)-2-methylpiperazine-1-carbonyl)phenyl)quinoline-8-sulfonamide] had an AC50 below 100 nM.
In the case of `COc1ccccc1N1C[C@@H](C)N(C(=O)c2ccc(NS(=O)(=O)c3cccc4cccnc34)cc2)[C@@H](C)C1` [Compound 222, N-(4-((2R,6S)-4-(2-methoxyphenyl)-2,6-dimethylpiperazine-1-carbonyl)phenyl)quinoline-8-sulfonamide], the AC50 is below 100 nM.
For `C[C@@H]1CN(C(=O)c2ccc(NS(=O)(=O)c3cccc4cccnc34)cc2)CCN1C(=O)c1ccccn1` [Compound 102], the AC50 was in the range of 100 to 500 nM.
With `C[C@H]1CN(CC2CCCCC2)CCN1C(=O)c1ccc(NS(=O)(=O)c2cccc3cccnc23)cc1` [Compound 153, (S)—N-(4-(4-(cyclohexylmethyl)-2-methylpiperazine-1-carbonyl)phenyl)quinoline-8-sulfonamide], the AC50 was 100 to 500 nM.
Still for that read-out and setting: under `CC(c1ccc(F)cc1F)N1CCN(C(=O)c2ccc(NS(=O)(=O)c3cccc4cccnc34)cc2)[C@H](C)C1` (stereo partly drawn) [Compound 160, N-(4-((2R)-4-(1-(2,4-difluorophenyl)ethyl)-2-methylpiperazine-1-carbonyl)phenyl)quinoline-8-sulfonamide] stands below 100 nM; under `C[C@@H]1CN(CC2CCCCC2)CCN1C(=O)c1ccc(NS(=O)(=O)c2cccc3cccnc23)cc1` [Compound 151, (R)—N-(4-(4-(cyclohexylmethyl)-2-methylpiperazine-1-carbonyl)phenyl)quinoline-8-sulfonamide], below 100 nM; under `CC1CN(Cc2cc(F)c(F)cc2F)CC(C)N1C(=O)c1ccc(NS(=O)(=O)c2cccc3cccnc23)cc1` (stereo not drawn) [Compound 203, N-(4-(2,6-dimethyl-4-(2,4,5-trifluorobenzyl)piperazine-1-carbonyl)phenyl)quinoline-8-sulfonamide], below 100 nM.
In turn, `CC(C)OC(=O)N1[C@H](C)CN(C(=O)c2ccc(NS(=O)(=O)c3cccc4cccnc34)cc2)C[C@@H]1C` [Compound 106, (2S,6R)-isopropyl 2,6-dimethyl-4-(4-(quinoline-8-sulfonamido)benzoyl)piperazine-1-carboxylate] showed an AC50 of 100 to 500 nM.
The same measure, in the same setting: under `CC1CN(Cc2ccc(F)cc2)CC(C)N1C(=O)c1ccc(NS(=O)(=O)c2cccc3cccnc23)cc1` (stereo not drawn) [Compound 196, N-(4-(4-(4-fluorobenzyl)-2,6-dimethylpiperazine-1-carbonyl)phenyl)quinoline-8-sulfonamide] stands below 100 nM.

Staying with this assay, now noted: Table 5.
For `COc1cc(C(=O)N2CCN(C(=O)c3csnn3)CC2)ccc1NS(=O)(=O)c1cccc2cccnc12` [Compound 321, N-(4-(4-(1,2,3-thiadiazole-4-carbonyl)piperazine-1-carbonyl)-2-methoxyphenyl)quinoline-8-sulfonamide], the AC50 fell in the range of 100 to 500 nM.
Still for that read-out and setting: under `O=C(c1ccc(NS(=O)(=O)c2cccc3cccnc23)cc1F)N1CCN(Cc2cc(F)c(F)c(F)c2)CC1` [Compound 423, N-(3-fluoro-4-(4-(3,4,5-trifluorobenzyl)piperazine-1-carbonyl)phenyl)quinoline-8-sulfonamide] stands below 100 nM; under `O=C(Cc1ccccc1F)N1CCN(C(=O)c2ccc(NS(=O)(=O)c3cccc4cccnc34)c(OC(F)(F)F)c2)CC1` [Compound 361], 500 to 1000 nM.
Same read-out and setting: under `O=C(c1ccc(NS(=O)(=O)c2cccc3cccnc23)c(OC(F)(F)F)c1)N1CCN(Cc2ncc[nH]2)CC1` [Compound 380, N-(4-(4-((1H-imidazol-2-yl)methyl)piperazine-1-carbonyl)-2-(trifluoromethoxy)phenyl)quinoline-8-sulfonamide] stands 100 to 500 nM; under `O=C(c1ccc(NS(=O)(=O)c2cccc3cccnc23)c(OC(F)(F)F)c1)N1CCN(C(=O)c2cscn2)CC1` [Compound 324, N-(4-(4-(thiazole-4-carbonyl)piperazine-1-carbonyl)-2-(trifluoromethoxy)phenyl)quinoline-8-sulfonamide], 100 to 500 nM.
Still for that read-out and setting: under `CC(c1cc(F)c(F)cc1F)N1CCN(C(=O)c2ccc(NS(=O)(=O)c3cccc4cccnc34)cc2)CC1` (stereo not drawn) [Compound 395, N-(4-(4-(1-(2,4,5-trifluorophenyl)ethyl)piperazine-1-carbonyl)phenyl)quinoline-8-sulfonamide] stands below 100 nM; under `O=C(c1ccc(NS(=O)(=O)c2cccc3cccnc23)c(OC(F)(F)F)c1)N1CCN(Cc2ccc(Cl)cc2)CC1` [Compound 338, N-(4-(4-(4-chlorobenzyl)piperazine-1-carbonyl)-2-(trifluoromethoxy)phenyl)quinoline-8-sulfonamide], 100 to 500 nM.
For the compound `O=C(c1ccc(NS(=O)(=O)c2cccc3cccnc23)cc1)N1CCN(C(=O)C2CCCO2)CC1` (stereo not drawn) [Compound 443, N-(4-(4-(tetrahydrofuran-2-carbonyl)piperazine-1-carbonyl)phenyl)quinoline-8-sulfonamide], the AC50 was 500 to 1000 nM.
For the compound `COc1cccc(OC)c1CN1CCN(C(=O)c2ccc(NS(=O)(=O)c3cccc4cccnc34)c(OC(F)(F)F)c2)CC1` [Compound 392, N-(4-(4-(2,6-dimethoxybenzyl)piperazine-1-carbonyl)-2-(trifluoromethoxy)phenyl)quinoline-8-sulfonamide], the AC50 lay within 500 to 1000 nM.
Consider `O=C(c1ccc(NS(=O)(=O)c2cccc3cccnc23)c(OC(F)(F)F)c1)N1CCN(CC2CCCC2)CC1` [Compound 336, N-(4-(4-(cyclopentylmethyl)piperazine-1-carbonyl)-2-(trifluoromethoxy)phenyl)quinoline-8-sulfonamide], for which the AC50 lay within 500 to 1000 nM.
The same measure, in the same setting: under `O=C(c1ccc(NS(=O)(=O)c2cccc3cccnc23)c(OC(F)(F)F)c1)N1CCN(Cc2cccc(Cl)c2Cl)CC1` [Compound 306, N-(4-(4-(2,3-dichlorobenzyl)piperazine-1-carbonyl)-2-(trifluoromethoxy)phenyl)quinoline-8-sulfonamide] stands 500 to 1000 nM.
`O=C(c1ccc(NS(=O)(=O)c2cccc3cccnc23)cc1)N1CCN(C(=O)c2nccs2)CC1` [Compound 371, N-(4-(4-(thiazole-2-carbonyl)piperazine-1-carbonyl)phenyl)quinoline-8-sulfonamide] displayed an AC50 below 100 nM.
Same read-out and setting: under `O=C(c1ccc(NS(=O)(=O)c2cccc3cccnc23)cc1F)N1CCN(CC2CCOC2)CC1` (stereo not drawn) [Compound 425, N-(3-fluoro-4-(4-((tetrahydrofuran-3-yl)methyl)piperazine-1-carbonyl)phenyl)quinoline-8-sulfonamide] stands below 100 nM; under `CC(c1ccc(F)c(F)c1F)N1CCN(C(=O)c2ccc(NS(=O)(=O)c3cccc4cccnc34)cc2)CC1` (stereo not drawn) [Compound 403, N-(4-(4-(1-(2,3,4-trifluorophenyl)ethyl)piperazine-1-carbonyl)phenyl)quinoline-8-sulfonamide], below 100 nM; under `O=C(c1ccncc1)N1CCN(C(=O)c2ccc(NS(=O)(=O)c3cccc4cccnc34)c(OC(F)(F)F)c2)CC1` [Compound 363], 100 to 500 nM.

(Values after patent US8889667B2 (Agios Pharmaceuticals, Inc, priority 2010, dated 2014).)
